# In US20200237700A1, “METHODS OF REDUCING OR PREVENTING OXIDATION OF SMALL DENSE LDL OR MEMBRANE POLYUNSATURATED FATTY ACIDS” (Amarin Pharmaceuticals Ireland Limited, priority 2015, published 2020):
# Experiments:
# [1] = Glucose-induced membrane lipid peroxidation (LOOH) in multilamellar vesicles, CHOD-iodide assay (Example 4); assay type: biochemical; details: for inhibited the peroxidative effects of glucose (LOOH formation): vs glucose alone
# Protocol: Vitamin E (α-tocopherol) was also purchased from Sigma-Aldrich and prepared in ethanol at 1.0 mM (ε=3.06×10^4 M^−1 cm^−1 at 294 nm) just prior to experimental use. […] All test compounds were further diluted in ethanol or aqueous buffer as needed. Glucose was prepared in saline buffer (0.5 mM HEPES, 154 mM NaCl, pH 7.3) at 11.0 mM (200 mg/dL). CHOD-iodide color reagent (stock) was prepared, with slight modification, as described by from El-Saadani et al. (J. […] Samples were shell-dried under nitrogen gas and placed under vacuum for 1 h to remove residual solvent. […] Lipid suspensions were then vortexed for 3 min at ambient temperature to form MLVs. All MLV samples were subjected to time-dependent autoxidation by incubating at 37° C. in an uncovered, shaking water bath. This method allows lipid peroxidation to occur gradually without requiring the use of exogenous initiators. Small aliquots (5-100 μL) of each sample were removed, immediately following MLV preparation (0 hour) and after exposing samples to oxidative conditions for 72 or 96 hour, and combined with 1.0 mL of activated CHOD-iodide color reagent. Aliquot volume was reduced with each successive time point to ensure that spectrophotometric readings were within the optimal adsorption range. Test samples were covered and incubated in darkness at room temperature for at least 4 hr. Sample absorbances were then measured against a CHOD blank at 365 nm using a Beckman DU-640 spectrophotometer. The CHOD colorimetric assay is based on the oxidation of iodide (I^−) by lipid hydroperoxide (LOOH) to form triiodide (I3^−), the quantity of which is directly proportional to the amount of LOOH present in the lipid sample. The molar absorptivity (E) of I3^− is 2.46×10^4 M^−1 cm^−1 at 365 nm. […] The concentration of glucose selected was consistent with previous experimental studies of hyperglycemia under controlled laboratory conditions or observed in well-defined animal models of Type II diabetes following a glucose challenge. […] Values in FIG. 1 are mean±S.D. (N=6). EPA inhibited the peroxidative effects of glucose by 88% and 86% at 72 and 96 hours, respectively, which was highly significant (p<0.001) as compared to glucose treatment alone. […] Overall ANOVA-0 hour data: p=0.6655, F=0.4185; 72 hour data: p<0.0001, F=428.72; 96 hour data: p<0.0001, F=322.01.
# [2] = Small angle x-ray diffraction of glucose-treated model membranes, cholesterol domain peak intensity (Example 4); assay type: physicochemical; details: 96-hour time point; vs vehicle or vitamin E treatments; 1:30; glucose 200 mg/dL
# Protocol: After centrifugal orientation, sample supernatants were aspirated and aluminum foil substrates, each supporting a single membrane pellet, were removed from the sedimentation cells. […] All x-ray diffraction experiments were conducted at 20° C., 74% relative humidity.
# Oriented membrane samples were aligned at grazing incidence with respect to a collimated, mono-chromatic CuKα x-ray beam (Kα1 and Kα2 unresolved; λ=1.54 Å) produced by a Rigaku Rotaflex RU-200, high-brilliance microfocus generator (Rigaku-MSC, The Woodlands, Tex.) as previously described (Mason et al., Biophys. J., vol. 55(4), pages 769-778 (1989)).
# Routines written in Origin 8.6 (OriginLab Corporation, Northampton, Mass.) were used to determine total peak area (associated with all diffraction peaks in a given pattern) against which the second-order cholesterol domain peak was normalized.
# [3] = system: HUVECs challenged with oxLDL; assay: NO and ONOO− release from HUVECs pretreated with agents, then oxLDL (Example 11, Objective 1); assay type: cell-based, human; details: pretreated 30 min at 10 μM, then oxLDL 11 mg/dL up to 3 hr, calcium ionophore 1.0 μM
# Protocol: The omega-3 fatty acid, cis-5,8,11,14,17-eicosapentaenoic acid (EPA) and docosahexaenoic acid (DHA) were purchased from Sigma-Aldrich (Saint Louis, Mo.) and solubilized in redistilled ethanol to 11 mM under nitrogen atmosphere. EPA and DHA stock solutions were stored at −20° C. until use.
# Human umbilical vein endothelial cells (HUVECs) were obtained from healthy, female donors and isolated into primary, proliferating cell cultures (Clonetics, San Diego, Calif.). […] The confluent cells (4 to 5×10^5 cells/35 mm dish) were plated with minimum essential medium containing 3 mM L-arginine and 0.1 mM BH4 [(6R)-5,6,7,8-tetrahydrobiopterin]. Before experimental use, the cells (from second or third passage) were rinsed twice with Tyrode-HEPES buffer with 1.8 mM CaCl2. […]
# LDL underwent oxidation following the addition of 10 μM CuSO4. […] Sample TBARS concentrations were determined spectrophotometrically by measuring sample absorbances against a standard curve derived from the hydrolysis of 1,1,3,3-tetramethoxypropane. […]
# The amperometric method (with a response time of 0.1 ms) provides a quantitative signal (current) that is directly proportional to changes (from basal levels) in NO or ONOO^− concentration. […] Basal NO or ONOO^− levels were measured by differential pulse voltammetry in separate experiments. […]
# NO and ONOO^− release were measured following stimulation with calcium.
Structure (SMILES),"effect on LOOH formation / lipid peroxidation ([1]; 72- and 96-hour time points, 1:30 drug-to-phospholipid mole ratio, glucose)","inhibited the peroxidative effects of glucose (LOOH formation) ([1]; 72 hours, glucose 200 mg/dL, 1:30 drug-to-phospholipid mole ratio) [%]","inhibited the peroxidative effects of glucose (LOOH formation) ([1]; 96 hours, glucose 200 mg/dL, 1:30 drug-to-phospholipid mole ratio) [%]","antioxidant effects of separate treatments (LOOH formation) ([1]; each at 1.0 μM, glucose 200 mg/dL, 96 hours)",inhibited relative cholesterol domain peak intensity [2],NO/ONOO− Ratio [3],NO/ONOO− Ratio ([3]; listed as Niacin)
"CC/C=C\C/C=C\C/C=C\C/C=C\C/C=C\CCCC(=O)O [EPA, cis-5,8,11,14,17-eicosapentaenoic acid]",significantly inhibited LOOH formation,88,86,potent antioxidant effects,more than 99%,,
"O=C(O)c1cccnc1 [niacin, nicotinic acid]",,,,,,1.45±0.14,1.45 ± 0.14
